Reference: patent US20260144780A1, “COMPOSITION FOR ENHANCING ADRENOMEDULLIN GENE EXPRESSION” (HOUSE WELLNESS FOODS CORPORATION, priority 2020, published 2026)

What was measured:
[1] = tested on: intestinal epithelial cells; details: Non Patent Literature 1, cited from earlier work
[2] = target: T1, human TRPA1 (Homo sapiens, UniProt O75762); experiment: TRP channel agonist activity, intracellular Ca2+ imaging, hTRPA1 stably expressing cell line; type: cell-based; details: oxylipin compounds 200 μM and 500 μM, AITC 30 μM, Evaluation 5, FIG. 21
T1 construct: expressed in transfected cells
T1 sequence (O75762 whole entry): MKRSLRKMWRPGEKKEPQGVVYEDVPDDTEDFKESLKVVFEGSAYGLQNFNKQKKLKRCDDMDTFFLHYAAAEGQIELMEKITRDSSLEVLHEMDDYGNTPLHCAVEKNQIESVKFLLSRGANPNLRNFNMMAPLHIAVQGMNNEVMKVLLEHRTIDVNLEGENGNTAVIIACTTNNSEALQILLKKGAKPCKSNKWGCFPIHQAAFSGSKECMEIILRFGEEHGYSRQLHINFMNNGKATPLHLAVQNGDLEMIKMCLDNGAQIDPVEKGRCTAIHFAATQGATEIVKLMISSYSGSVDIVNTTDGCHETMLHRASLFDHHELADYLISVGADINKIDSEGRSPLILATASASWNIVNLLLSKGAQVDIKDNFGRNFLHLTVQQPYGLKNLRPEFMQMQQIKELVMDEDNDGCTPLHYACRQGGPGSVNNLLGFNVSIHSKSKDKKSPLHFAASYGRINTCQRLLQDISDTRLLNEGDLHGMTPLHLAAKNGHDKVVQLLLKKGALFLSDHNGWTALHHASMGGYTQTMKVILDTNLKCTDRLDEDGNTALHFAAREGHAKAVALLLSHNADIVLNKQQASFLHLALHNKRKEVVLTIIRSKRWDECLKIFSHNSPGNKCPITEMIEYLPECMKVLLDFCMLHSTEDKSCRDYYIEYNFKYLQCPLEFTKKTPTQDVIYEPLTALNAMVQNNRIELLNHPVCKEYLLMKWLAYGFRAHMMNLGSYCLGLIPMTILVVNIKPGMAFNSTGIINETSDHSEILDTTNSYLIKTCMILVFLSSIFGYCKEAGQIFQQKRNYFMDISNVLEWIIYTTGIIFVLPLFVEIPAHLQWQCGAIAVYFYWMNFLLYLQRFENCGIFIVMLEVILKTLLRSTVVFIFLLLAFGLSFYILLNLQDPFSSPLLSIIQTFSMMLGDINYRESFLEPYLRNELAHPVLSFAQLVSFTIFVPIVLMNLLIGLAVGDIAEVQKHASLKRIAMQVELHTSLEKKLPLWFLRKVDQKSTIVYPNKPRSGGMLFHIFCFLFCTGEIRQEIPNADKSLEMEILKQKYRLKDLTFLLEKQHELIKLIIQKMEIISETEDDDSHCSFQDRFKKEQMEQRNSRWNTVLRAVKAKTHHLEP
Description: DNA fragments containing nucleotide sequences encoding amino acid sequences of human TRPA1 (Accession No. NM_007332.3) (hereinafter referred to also as hTRPA1), human TRPV1 (Accession No. NM_080704.4) (hereinafter referred to also as hTRPV1) and human TRPM8 (Accession No. NM_024080.5) (hereinafter referred to also as hTRPM8) were inserted into pcDNA5/TO vectors (Invitrogen) to construct an hTRPA1 expression vector, an hTRPV1 expression vector and an hTRPM8 expression vector, respectively.
T-REx™_293 cells (Invitrogen) were cultured in Dulbecco's modified Eagle medium (DMEM, Nacalai Tesque Inc.) containing 10% fetal bovine serum (FBS, Cytiva) up to 60 to 70% confluent growth in the wells of a 6 well plate. T-REx™-293 cells were transfected with an hTRPA1 expression vector, an hTRPV1 expression vector or an hTRPM8 expression vector by use of Lipofectamine LTX (Invitrogen) in accordance with a manual.
To Dulbecco's modified Eagle medium (DMEM, Nacalai Tesque Inc.) containing 10% fetal bovine serum (FBS, Cytiva), hygromycin B and blasticidin S were added so as to have a concentration of […] and 5 μg/ml, respectively. In this manner, a drug selection medium was prepared. Twenty-four hours after completion of transfection, the medium of the above cells was exchanged with the drug selection medium, and thereafter, the cells were cultured for 7 days while exchanging the medium with a fresh medium every two days. Living cells were subcultured and regarded as hTRPA1 stably expressing cell line, hTRPV1 stably expressing cell line and hTRPM8 stably expressing cell line, respectively.
The day before assay, cells of the individual expressing cell lines were removed from the medium with a trypsin/EDTA solution and seeded in the wells of a 96-well black-well plate with a clear bottom so as to obtain a cell density of 5×10^4 cells to 6×10^4 cells/well. At this time, tetracycline was added to the medium so as to obtain a concentration of 1 μg/ml to induce expression of hTRPA1, hTRPV1 or hTRPM8. Culture was carried out in an incubator at 37° C. for 24 hours to 48 hours and then cells were washed with PBS. After PBS was removed from the wells, 50 μl of a calcium fluorescent indicator, Calbryte 520 AM (AAT, Bioquest), which was prepared by dissolving CaCl2 dihydrate, HEPES, BSA in an assay buffer HBSS (−) (solution prepared by adding so as to obtain a final concentration of 1 mM, 20 mM and 0.1%, respectively), so as to obtain a concentration of 4 μM, was added, to the wells and incubated at 33° C. for 45 minutes. Thereafter, the cells were again washed with the assay buffer and then 100 μl was allowed to remain in the wells to prepare cells for assay. A solution of a test substance for evaluating TRP channel agonist activity and having a concentration twice as large as the concentration for measurement was prepared within the wells of the 96-well plate and used within 30 minutes after preparation. The cells to be subjected to assay were incubated at 31° C. and a test substance solution (100 μl) was added to the cells for assay by use of Flaxstation3 (Molecular Devices) and fluorescence intensity (excitation wavelength: 490 nm, fluorescence wavelength: 525 nm) was measured every 2 seconds up to 120 seconds. Thirty seconds after initiation of measurement, the (test substance) solution was added to the cells for assay such that a final concentration of the test substance becomes a concentration for measurement.
TRP channel activation ability of a test substance was calculated as a relative value based on the activation ability of 10 μM ionomycin to each of TRP channels, in accordance with the following calculation formula. […]

[3] = Solubility of isolated oxylipin compounds (physicochemical properties); details: solvents listed for the isolated compound
[4] = in the presence of 1 μM A-967079 (TRPA1 antagonist)

Compound: CCCCC/C=C/C(=O)CCc1ccc(O)c(OC)c1 [Compound 6-shogaol, 6-shogaol]
- action to promote release of adrenomedullin from the intestinal epithelial cells, with a TRPA1 antagonist ([1]; TRPA1 antagonist added): inhibited by a TRPA1 antagonist
- release of adrenomedullin from the intestinal epithelial cells [1]: have an action to promote release of adrenomedullin from the intestinal epithelial cells

Compound: CC/C=C/CC(O)/C=C/C=C\CCCCCCCC(=O)O (stereo not shown) [Compound R1-2, (9Z,11E,15E)-13-hydroxy-9,11,15-octadecatrienoic acid]
- TRPA1 activation ability ([2]; in the absence of A-967079): showed TRPA1 activation ability in the absence of A-967079 in a concentration dependent manner
- TRPA1 activation ability [2, 4]: did not show TRPA1 activation ability
- Solubility [3]: ethanol, methanol, acetonitrile, chloroform

Compound: CC/C=C\C/C=C\C=C\C(O)CCCCCCCC(=O)O (stereo not shown) [Compound R3, (10E,12Z,15Z)-9-hydroxy-10,12,15-octadecatrienoic acid]
- TRPA1 activation ability ([2]; in the absence of A-967079): showed TRPA1 activation ability in the absence of A-967079 in a concentration dependent manner
- TRPA1 activation ability [2, 4]: did not show TRPA1 activation ability
- Solubility [3]: ethanol, methanol, acetonitrile, ethyl acetate, chloroform

Compound: (7Z,13E,15Z)-12-hydroxy-7,13,15-octadecatrienoic acid and (9Z,13E,15Z)-12-hydroxy-9,13,15-octadecatrienoic acid [Compound R2-1]
- TRPA1 activation ability ([2]; in the absence of A-967079): showed TRPA1 activation ability in the absence of A-967079 in a concentration dependent manner
- TRPA1 activation ability [2, 4]: did not show TRPA1 activation ability

Compound: CCC(O)/C=C/C=C\C/C=C\CCCCCCCC(=O)O (stereo not shown) [Compound R2-2, (9Z,12Z,14E)-16-hydroxy-9,12,14-octadecatrienoic acid]
- TRPA1 activation ability ([2]; in the absence of A-967079): showed TRPA1 activation ability in the absence of A-967079 in a concentration dependent manner
- TRPA1 activation ability [2, 4]: did not show TRPA1 activation ability
- Solubility [3]: ethanol, methanol, acetonitrile, ethyl acetate, chloroform
